From patent US20030049814A1, “Herbicide resistant plants” (priority 1999, published 2003)
Counter-ions that a name gives are not always drawn.

What was measured:
[1] = system: sensitive w/t form of EPSPS (endogenous); test: EPSPS assay of plant extracts with or without glyphosate, sensitive enzyme; type: biochemical, corn; conditions: 0.1 mM glyphosate, 0.1 mM 14C-PEP, 0.75 mM shikimate-3-Pi
Experimental: (§1) Assays are carried out generally according to the radiochemical method of Padgette et al 1987 (Archives of Biochemistry and Biophysics, 258(2) 564-573) with K+ions as the major species of cationic counterion. Assays in a total volume of 50 μl, in 50 mM Hepes(KOH) pH 7.0 at 25° C., contain purified enzyme or plant extract (see below) diluted appropriately in Hepes pH 7.0 containing 10% glycerol, and 5 mM DTT, ^14C PEP either as variable substrate(for kinetic determinations) or fixed at 100 or 250 μM and shikimate 3 Phosphate (K+salt) at 2 or 0.75 mM as indicated. Optionally, for assays of crude plant extracts, assays also contain 5 mM KF and/or 0.1 mM ammonium molybdate. Assays are started with the addition of ^14C phosphoenolpyruvate (cyclohexylammonium+salt) and stopped after 2-10 minutes (2 minutes is preferable) with the addition of 50μl of a solution of 1 part 1M acetic acid and 9 parts ethanol. […] Apparent Km and Vmax values are determined by least squares fit to a hyperbola with simple weighting using the Grafit 3.09b from Erithacus Software Ltd. Km values are generally ascertained using 8-9 concentrations of variable substrate ranging from Km/2-10 Km and triplicate points. […]

[2] = system: resistant form of EPSPS; test: EPSPS assay of plant extracts with or without glyphosate, resistant enzyme; type: biochemical, rice; conditions: 0.1 mM glyphosate, 0.1 mM 14C-PEP, 0.75 mM shikimate-3-Pi
Experimental: as §1

[3] = biological target: T1, mutant form of rice EPSPS (Oryza sativa, UniProt A0A0N9WU17, P177S/T173I); test: EPSPS enzyme assay (radiochemical) of purified mutant rice EPSPS; type: biochemical
T1 sequence (A0A0N9WU17 72-515 T173I/P177S): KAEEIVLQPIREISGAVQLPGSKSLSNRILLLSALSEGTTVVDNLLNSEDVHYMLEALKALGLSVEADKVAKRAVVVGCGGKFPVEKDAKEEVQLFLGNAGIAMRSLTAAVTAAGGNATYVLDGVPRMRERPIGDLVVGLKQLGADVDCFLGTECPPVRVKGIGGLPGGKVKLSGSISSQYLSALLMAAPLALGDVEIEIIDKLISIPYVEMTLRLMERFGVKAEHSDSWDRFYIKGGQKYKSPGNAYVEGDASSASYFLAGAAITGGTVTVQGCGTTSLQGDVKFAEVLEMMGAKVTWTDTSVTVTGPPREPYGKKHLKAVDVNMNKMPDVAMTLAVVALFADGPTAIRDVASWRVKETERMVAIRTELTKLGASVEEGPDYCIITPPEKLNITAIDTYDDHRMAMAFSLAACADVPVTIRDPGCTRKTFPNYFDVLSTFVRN
Excerpt: The resultant products are gel purified and placed into a tube in eqi-molar concentrations to serve as a template for another round of PCRs with the rice 5′ and 3′ oligos. The resultant products are cloned into pCRBlunt II using Invitrogens Zero Blunt TOPO kit. It is confirmed that the DNA sequence of the insert and its predicted open reading frame correspond to that of the predicted mature chloroplastic rice EPSPS protein (with the exception of the presence of an initiating Met) and also that the desired changes (the specific mutation of T to I and P to S at specific positions in the EPSPS sequence) are encoded . The thus cloned and verified rice epsps sequence is excised using Nde 1 and Xho 1 and the purified fragment cloned into pET24a (Novagen) digested similarly. The recombinant clones are introduced into BL21 (DE3), a codon optimised RP strain of E. coli supplied by Strategene. The EPSPS protein is expressed in this strain following addition of 1 mM IPTG to the fermenter medium (LB supplemented with 100 ug/ml Kanamycin). […]

Row | SMILES | inhibition of sensitive w/t (endogenous) EPSPS [1] [%] | inhibition of resistant (tolerant) EPSPS [2] [%] | inhibition of resistant (tolerant) EPSPS ([2]; listed as glyphosate) [%] | IC50 [3] [µM] | Ki [3] [µM]
1 | O=C(O)CNCP(=O)(O)O [N-(phosphonomethyl)glycine, N-phosphonomethylglycine] | > 98 | < 8.5 | ~8 | – | –
2 | O=C(O)CNCP(=O)(O)O [potassium salt of glyphosate] | – | – | – | ~600 | ~200
